Assay results: patent US6596687B1, “Cell adhesion inhibitors” (Biogen, Inc., priority 1995, dated 2003)
Numbered stars: 1 amine (or outer) side, 2 acyl side, 3 side chain; on linkers, the order of the positions; unused ones are H or OH. Square brackets hold non-standard residues; d marks the D form. Peptide text beside a SMILES is read from it. * marks the point of attachment. X2 = O=C(Cc1ccc(N[*:1])cc1)[*:2]; NH(2-F-phenyl) = Fc1ccccc1N*; Piperidide = C1CCN(*)CC1; NHcHex = C1CCC(N*)CC1; CO = O=C([*:1])[*:2]; NHBn = c1ccc(CN*)cc1; Bz = O=C(c1ccccc1)*; NHPh = c1ccc(N*)cc1; NHiPr = CC(C)N*; NHBu = CCCCN*

Target: T1, VLA4 (Homo sapiens, UniProt P05556+P13612)
T1 construct: endogenous in cells; host or cells: Ramos cells
T1 sequence (P13612 34-1032): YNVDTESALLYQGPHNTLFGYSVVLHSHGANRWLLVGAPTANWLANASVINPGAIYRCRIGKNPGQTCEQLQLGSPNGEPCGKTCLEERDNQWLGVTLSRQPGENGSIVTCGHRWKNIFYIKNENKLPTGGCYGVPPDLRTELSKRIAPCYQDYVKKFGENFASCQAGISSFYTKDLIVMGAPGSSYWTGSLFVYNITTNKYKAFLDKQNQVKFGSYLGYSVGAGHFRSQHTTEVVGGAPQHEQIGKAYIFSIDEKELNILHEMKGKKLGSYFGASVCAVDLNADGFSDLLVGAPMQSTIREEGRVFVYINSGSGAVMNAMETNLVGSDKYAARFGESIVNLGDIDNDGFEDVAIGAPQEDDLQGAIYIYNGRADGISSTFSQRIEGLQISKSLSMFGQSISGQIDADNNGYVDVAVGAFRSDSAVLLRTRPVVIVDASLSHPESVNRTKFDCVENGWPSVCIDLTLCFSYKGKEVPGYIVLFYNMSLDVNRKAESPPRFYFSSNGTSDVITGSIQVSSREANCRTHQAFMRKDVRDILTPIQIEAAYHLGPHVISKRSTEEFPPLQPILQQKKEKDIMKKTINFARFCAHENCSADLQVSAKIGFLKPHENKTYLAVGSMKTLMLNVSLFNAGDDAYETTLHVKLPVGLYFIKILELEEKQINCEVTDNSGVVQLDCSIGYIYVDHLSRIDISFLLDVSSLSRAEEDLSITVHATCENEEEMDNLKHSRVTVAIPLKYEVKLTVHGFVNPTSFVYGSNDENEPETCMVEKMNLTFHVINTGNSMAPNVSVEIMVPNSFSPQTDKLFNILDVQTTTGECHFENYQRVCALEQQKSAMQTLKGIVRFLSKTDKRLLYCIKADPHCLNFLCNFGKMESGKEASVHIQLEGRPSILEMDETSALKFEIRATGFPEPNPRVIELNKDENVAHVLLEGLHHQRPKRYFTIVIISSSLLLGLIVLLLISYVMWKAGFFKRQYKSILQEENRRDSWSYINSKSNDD
T1 sequence (P05556 21-798): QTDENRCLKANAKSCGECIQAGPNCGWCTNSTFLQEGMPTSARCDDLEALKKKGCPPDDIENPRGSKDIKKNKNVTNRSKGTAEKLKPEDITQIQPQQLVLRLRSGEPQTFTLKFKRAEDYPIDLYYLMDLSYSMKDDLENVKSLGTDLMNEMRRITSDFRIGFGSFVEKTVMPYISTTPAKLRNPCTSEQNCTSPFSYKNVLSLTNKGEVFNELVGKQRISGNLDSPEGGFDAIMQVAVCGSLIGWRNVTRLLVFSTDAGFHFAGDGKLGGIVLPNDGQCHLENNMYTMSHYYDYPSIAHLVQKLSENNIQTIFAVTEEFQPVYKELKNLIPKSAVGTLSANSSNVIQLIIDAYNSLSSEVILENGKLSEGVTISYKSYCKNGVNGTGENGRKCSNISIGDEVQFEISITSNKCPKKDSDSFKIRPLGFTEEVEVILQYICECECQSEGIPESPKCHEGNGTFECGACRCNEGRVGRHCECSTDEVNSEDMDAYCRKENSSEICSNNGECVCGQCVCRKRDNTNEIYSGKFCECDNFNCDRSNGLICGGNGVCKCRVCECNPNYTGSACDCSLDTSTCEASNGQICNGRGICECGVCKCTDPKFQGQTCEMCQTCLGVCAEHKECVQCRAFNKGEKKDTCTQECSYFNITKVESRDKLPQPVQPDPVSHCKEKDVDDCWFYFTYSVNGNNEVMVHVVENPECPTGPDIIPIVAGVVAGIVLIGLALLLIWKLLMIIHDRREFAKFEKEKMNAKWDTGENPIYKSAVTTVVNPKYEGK
Experiment: Inhibition of VLA4-dependent adhesion of Ramos cells to BSA-CS1
Assay type: cell-based
Conditions: Ramos cells, BSA-CS1 coated wells, 2 mM MnCl2, 30 minutes at room temperature; read-out: IC50
Excerpt: For example, the cell adhesion inhibitory activity of these compounds may be measured by determining the concentration of inhibitor required to block the binding of VLA-4-expressing cells to fibronectin- or CS1-coated plates. In this assay microtiter wells are coated with either fibronectin (containing the CS1-sequence) or CS-1. If CS-1 is used, it must be conjugated to a carrier protein, such as bovine serum albumin, in order to bind to the wells. Once the wells are coated, varying concentrations of the test compound are then added together with appropriately labelled, VLA-4-expressing cells. Alternatively, the test compound may be added first and allowed to incubate with the coated wells prior to the addition of the cells. The cells are allowed to incubate in the wells for at least 30 minutes. Following incubation, the wells are emptied and washed. Inhibition of binding is measured by quantitating the fluorescence or radioactivity bound to the plate for each of the various concentrations of test compound, as well as for controls containing no test compound.
VLA-4-expressing cells that may be utilized in this assay include Ramos cells, Jurkat cells, A375 melanoma cells, as well as human peripheral blood lymophocytes (PBLs). The cells used in this assay may be fluorescently or radioactively labelled.
This assay was used to assess the potency of VLA4-directed inhibitory compounds of this invention. 1.
We dissolved BSA-SMCC (Pierce Chemical, Rockford, Ill.; Catalog #77115) in H2O at a concentration of 10 mg/mL. [SEQ ID NO:4]: […](“Cys-Tyr-CS1 peptide”), which we synthesized by conventional solid phase chemistry and purified by HPLC, was dissolved in 10 mM HEPES pH 5, 50 mM NaCl and 0.1 mM EDTA also at a concentration of 10 mg/mL. We then mixed 500 μL of BSA-SMCC, 250 μL of Cys-Tyr-CS1 peptide and 75 μL of 1 mM HEPES pH 7.5 and allowed the conjugation reaction to proceed for 30 minutes. We stopped the reaction by adding 1 μL of beta-mercaptoethanol. Samples were analyzed for cross-linking by SDS-PAGE.
We coated the wells of a Linbro titertek polystyrene 96-well flat bottom plate (Flow Laboratories, Maclean, Va.; catalog #76-231-05) with 100 μL of the above-described BSA-CS1 solution diluted to 1 μg/mL in 0.05 M NaHCO3 (15 mM NaHCO3, 35 mM Na2CO3) pH 9.2. Some wells were not coated with CS1 in order to assess non-specific cell binding (NSB). The plate was then incubated overnight at 4° C.
Following this incubation, the contents of the wells were removed by inverting and blotting the plate. All of the wells were then blocked with 100 μL of 1% BSA in PBS, 0.02% NaN3, for a minimum of one hour at room temperature.
Ramos cells are grown, maintained and labelled in RPMI 1640 culture medium containing 1% BSA. Just prior to running the assay, we added 2′, 7′-bis-(2-carboxyethyl)-5(and -6)carboxyfluorescein acetoxymethyl ester (“BCECF-AM”; Molecular Probes Inc., Eugene, Oregon; catalog #B-1150) to a final concentration of 2 μM to a culture of Ramos cells (4×10^6 cells/mL). We incubated the cells for 20 minutes at 37° C.
Following labelling, the cells were washed twice in assay buffer (24 mM TRIS, 137 mM NaCl, 2.7 mM KCl, pH 7.4, containing 0.1 BSA and 2mM glucose) to remove any cations originating from the culture medium. The cells were then resuspended in assay buffer to 4×10^6 cells/mL and 2 mM MnCl2 was added to upregulate VLA4 on the surface of the cells.
Immediately prior to running the assay, we removed the BSA blocking solution from the 96-well plates and washed the wells with 100 μL of assay buffer. We then added to each well 25 μL of test cell adhesion inhibitory compound at 2×the final concentration and 25 μL of the labelled Ramos cells. […] Each concentration of compound was tested in triplicate. The compound and cells are allowed to incubate for 30 minutes at room temperature.

Structure (SMILES)	IC50
CC(C)C[C@H](NC(=O)[C@H](CC(=O)O)NC(=O)[C@H](CC(C)C)NC(=O)C1Cc2ccccc2CN1)C(=O)O (some centres unmarked) [Compound 90] (HELM PEPTIDE1{[O=C(C1Cc2ccccc2CN1)[*:2]].L.D.L}$$$$V2.0)	> 10 µM
CC(C)C[C@H](NC(=O)Cc1ccc(NC(=O)Nc2ccccc2)cc1)C(=O)N[C@@H](CC(=O)O)C(=O)N[C@H](C(=O)N1CCC[C@H]1C(=O)NC1CCCCC1)C(C)C [Compound 324] ({NHPh-CO}-[X2]LDVP-NHcHex)	0.05 to 10 µM
CNC(=O)[C@@H](NC(=O)[C@H](CC(=O)O)NC(=O)[C@H](CC(C)C)NC(=O)NCc1ccccc1)C(C)C [Compound 47] ({NHBn-CO}-Leu-Asp-Val-NHMe)	> 10 µM
CC(C)C[C@H](NC(=O)Cc1ccc(NC(=O)Nc2ccccc2)cc1)C(=O)N[C@@H](CC(=O)O)C(=O)N[C@H](C(=O)N1CCC[C@H]1C(=O)NC(C)C)C(C)C [Compound 327] ({NHPh-CO}-[X2]LDVP-NHiPr)	< 0.05 µM
CC(C)C[C@H](NC(=O)C1Cc2ccccc2CN1)C(=O)N[C@@H](CC(=O)O)C(=O)N[C@@H](Cc1ccccc1)C(=O)O (some centres unmarked) [Compound 92] (HELM PEPTIDE1{[O=C(C1Cc2ccccc2CN1)[*:2]].L.D.F}$$$$V2.0)	> 10 µM
COC(=O)[C@@H](NC(=O)[C@H](CC(=O)O)NC(=O)[C@H](CC(C)C)N(CCc1ccccc1)C(C)=O)C(C)C [Compound 29]	> 10 µM
CC[C@H](C)[C@H](NC(=O)Cc1ccc(NC(=O)Nc2ccccc2C)cc1)C(=O)N[C@@H](CC(=O)O)C(=O)N[C@@H](CC(=O)O)C(N)=O [Compound 286]	< 0.05 µM
CCCCCCNC(=O)[C@H](CC(=O)O)NC(=O)[C@H](CC(C)C)NC(=O)CCc1ccc(O)cc1 [Compound 116]	> 10 µM
CCCCOC(=O)[C@@H](NC(=O)[C@H](CC(=O)O)NC(=O)[C@H](CC(C)C)NC(=O)c1ccc2ccccc2n1)[C@@H](C)O [Compound 195]	> 10 µM
CC(C)C[C@H](NC(=O)c1cc2ccccc2[nH]1)C(=O)N[C@@H](CC(=O)O)C(=O)N[C@H](C(=O)O)C(C)C [Compound 99]	> 10 µM
CSCC[C@H](NC(=O)[C@H](CC(=O)O)NC(=O)[C@@H]1CCCN1C(=O)Cc1ccc(NC(=O)Nc2ccccc2C)cc1)C(N)=O [Compound 247]	< 0.05 µM
CC(C)C[C@H](NC(=O)[C@H](CC(=O)O)NC(=O)C1Cc2ccccc2CN1)C(=O)O (some centres unmarked) [Compound 88] (HELM PEPTIDE1{[O=C(C1Cc2ccccc2CN1)[*:2]].D.L}$$$$V2.0)	> 10 µM
COc1nc(CC(=O)N[C@@H](CC(C)C)C(=O)N[C@@H](CC(=O)O)C(=O)N[C@H](C(N)=O)C(C)C)ccc1NC(=O)Nc1ccccc1C [Compound 3]	< 0.05 µM
CC(C)C[C@H](NC(=O)Cc1ccc(NC(=O)Nc2ccccc2)cc1)C(=O)N[C@@H](CC(=O)O)C(=O)N[C@H](C(=O)N1CCC[C@H]1C(=O)N1CCCCC1)C(C)C [Compound 325] ({NHPh-CO}-[X2]LDVP-Piperidide)	0.05 to 10 µM
CCCCNC(=O)N[C@@H](CC(=O)O)C(=O)N[C@H](C(=O)OC)C(C)C [Compound 169] ({NHBu-CO}-Asp-Val-OMe)	> 10 µM
COC(=O)[C@@H](NC(=O)[C@H](CC(=O)O)NC(=O)[C@H](CC(C)C)NC(=O)c1ccc2ccccc2n1)[C@@H](C)O [Compound 170]	> 10 µM
CC(C)CNC(=O)[C@H](CC(=O)O)NC(=O)[C@H](CC(C)C)NC(=O)CCC(=O)Nc1ccccc1 [Compound 111]	> 10 µM
CC(C)CC(NC(=O)Cc1ccc(NC(=O)Nc2ccccc2)cc1)C(=O)NC(CC(=O)O)C(=O)NC1CCCCC1 (centres unmarked) [Compound 216]	0.05 to 10 µM
COC(=O)[C@@H](NC(=O)[C@H](CC(=O)O)NC(=O)[C@H](CC(C)C)N(C)C(=O)CCc1ccccc1)C(C)C [Compound 140] (HELM PEPTIDE1{[O=C(CCc1ccccc1)[*:2]].[meL].D.V.[CO[*:1]]}$$$$V2.0)	> 10 µM

Structure (SMILES)	IC50
Cc1ccccc1NC(=O)Nc1ccc(CC(=O)N[C@@H](CC(C)C)C(=O)N[C@@H](CCC(=O)O)C(=O)N[C@H](C(N)=O)C(C)C)cc1 [Compound 311]	< 0.05 µM
CC(C)C[C@H](NC(=O)c1cc2ccccc2cn1)C(=O)N[C@@H](CO)C(=O)N[C@H](C(=O)O)C(C)C [Compound 7]	> 10 µM
CC(C)C[C@H](NC(=O)Cc1ccc(NC(=O)Nc2ccccc2F)cc1)C(=O)N[C@@H](CC(=O)O)C(=O)N[C@H](C(=O)N1CCC[C@H]1C(=O)O)C(C)C [Compound 347] ({NH(2-F-phenyl)-CO}-[X2]LDVP-OH)	< 0.05 µM
CC(C)CCNC(=O)[C@H](CC(=O)O)NC(=O)[C@H](CC(C)C)NC(=O)C1CCc2ccccc2N1 (some centres unmarked) [Compound 110]	> 10 µM
CNC(=O)[C@@H](NC(=O)[C@H](CC(=O)O)NC(=O)[C@H](CC(C)C)N(C)C(=O)Cc1ccccc1)C(C)C [Compound 180] (HELM PEPTIDE1{[O=C(Cc1ccccc1)[*:2]].[meL].D.V.[CN[*:1]]}$$$$V2.0)	0.05 to 10 µM
CC(C)C[C@H](NC(=O)c1ccccc1)C(=O)N[C@@H](CC(=O)O)C(=O)N[C@H](C(=O)O)C(C)C [Compound 105] (HELM PEPTIDE1{[O=C(c1ccccc1)[*:2]].L.D.V}$$$$V2.0)	> 10 µM
CC(C)C[C@H](NC(=O)Cc1ccc(NC(=O)Nc2ccccc2)cc1)C(=O)N[C@@H](CC(=O)O)C(=O)N[C@H](C(=O)N1CCOCC1)C(C)C [Compound 318]	< 0.05 µM
CC(C)CC(NC(=O)Cc1ccccc1)C(=O)NC(CC(=O)O)C(=O)NC(C(=O)N1CCCCC1C(=O)O)C(C)C (centres unmarked) [Compound 42]	0.05 to 10 µM
COC(=O)C[C@H](NC(=O)CNC(=O)c1ccccc1)C(=O)N[C@H](C(=O)OC)C(C)C [Compound 173] (Bz-Gly-Asp(OMe)-Val-OMe)	> 10 µM
CC(C)C[C@H](NC(=O)Cc1ccc(NC(=O)Nc2ccccc2)cc1)C(=O)N[C@@H](CC(=O)O)C(=O)N[C@H](C(=O)N1CCC[C@H]1C(=O)NCc1ccccc1)C(C)C [Compound 326] ({NHPh-CO}-[X2]LDVP-NHBn)	< 0.05 µM
CC(C)(C)OC(=O)N[C@@H](CC(=O)O)C(=O)N1CCC[C@H]1C(=O)NCC(=O)O [Compound 135] (HELM PEPTIDE1{[CC(C)(C)OC(=O)[*:2]].D.P.G}$$$$V2.0)	> 10 µM
CC(C)C[C@H](NC(=O)CCCc1ccccc1)C(=O)N[C@@H](CC(=O)O)C(=O)N[C@H](C(=O)O)C(C)C [Compound 155]	> 10 µM
CC(C)C[C@H](NC(=O)c1ccc2ccccc2n1)C(=O)N[C@@H](CC(=O)O)C(=O)N[C@H](C(=O)OC(C)(C)C)C(C)C [Compound 158]	> 10 µM
CC(C)C[C@H](NC(=O)c1ccc2ccccc2n1)C(=O)N[C@@H](CC(=O)O)C(=O)NCCC(C)(C)C [Compound 198]	> 10 µM
CNC(=O)[C@@H](NC(=O)[C@H](CC(=O)O)NC(=O)[C@H](CC(C)C)NC(=O)c1ccc2ccccc2n1)C(C)C [Compound 164]	0.05 to 10 µM
CC(C)C[C@H](NC(=O)CCCCCc1ccccc1)C(=O)N[C@@H](CC(=O)O)C(=O)N[C@H](C(=O)O)C(C)C [Compound 104]	> 10 µM
CC(C)C[C@H](NC(=O)c1ccc2ccccc2n1)C(=O)N[C@@H](CC(=O)O)C(=O)N[C@H](C(=O)Nc1ccc(F)cc1)C(C)C [Compound 123]	> 10 µM
CC(C)C[C@H](NC(=O)Cc1ccc(NC(=O)Nc2ccccc2)cc1)C(=O)N[C@@H](CC(=O)O)C(=O)N[C@H](C(=O)N1CCCCC1)C(C)C [Compound 322]	< 0.05 µM
CC(=O)N[C@@H](Cc1ccccc1)C(=O)N[C@@H](CC(C)C)C(=O)N[C@@H](CC(=O)O)C(=O)N[C@H](C(=O)O)C(C)C [Compound 152] (Ac-FLDV-OH)	> 10 µM
